US9796741B2 (Achillion Pharmaceuticals, Inc., priority 2014, dated 2017)
Read-outs that look alike come from different tables or passages of the source.

Molecular target: Human factor D (Homo sapiens (Human), UniProt P00746)
Assay: Human Factor D Assay
Type: biochemical
Method: Human factor D (purified from human serum, Complement Technology, Inc.) at 80 nM final concentration is incubated with test compound at various concentrations for 5 minutes at room temperature in 50 mM Tris, 1M NaCl, pH 7.5. A synthetic substrate Z-L-Lys-SBzl and DTNB (Ellman's reagent) are added to final concentrations of 100 μM each. The increase in color is recorded at OD405 nm in a microplate in kinetic mode over 30 minutes with 30 second time points in a spectrofluorimeter. IC50 values are calculated by non-linear regression from the percentage of inhibition of complement factor D activity as a function of test compound concentration.

[1] = human factor D 80 nM, substrate Z-L-Lys-SBzl, DTNB

Sequence of Human factor D (P00746 26-253): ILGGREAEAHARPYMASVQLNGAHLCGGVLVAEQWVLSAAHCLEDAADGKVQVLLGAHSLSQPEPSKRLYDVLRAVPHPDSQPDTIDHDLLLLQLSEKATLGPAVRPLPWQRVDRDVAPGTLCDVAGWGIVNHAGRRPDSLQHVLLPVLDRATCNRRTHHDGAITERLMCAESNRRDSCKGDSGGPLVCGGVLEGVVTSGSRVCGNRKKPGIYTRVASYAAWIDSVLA

SMILES | IC50 [1] | IC50
CC(=O)c1cn(CC(=O)N2C[C@H](F)C[C@H]2C(=O)N[C@H]2CCC[C@@H]2OCc2ccccc2)c2ccc(-c3ccnnc3)cc12 [Compound 77, (2S,4R)-1-(2-(3-acetyl-5-(pyridazin-4-yl)-1H-indol-1-yl)acetyl)-N-((1S,2S)-2-(benzyloxy)cyclopentyl)-4-fluoropyrrolidine-2-carboxamide] | > 10000 nM | 
CC(=O)c1cn(CC(=O)N2C[C@H](F)C[C@H]2C(=O)Nc2cncc(Cl)n2)c2ccc(-c3ccnnc3)cc12 [Compound 88, (2S,4R)-1-(2-(3-acetyl-5-(pyridazin-4-yl)-1H-indol-1-yl)acetyl)-N-(6-chloropyrazin-2-yl)-4-fluoropyrrolidine-2-carboxamide] | < 1000 nM | 
CC(=O)c1cn(CC(=O)N2[C@@H]3C[C@@H]3C[C@H]2C(=O)NCc2cccc(Cl)c2F)c2ccc(-c3cnc(C)nc3)cc12 [Compound 134, (1R,3S,5R)-2-(2-(3-acetyl-5-(2-methylpyrimidin-5-yl)-1H-indol-1-yl)acetyl)-N-(3-chloro-2-fluorobenzyl)-2-azabicyclo[3.1.0] hexane-3-carboxamide] | < 1000 nM | 
NC(=O)c1nn(CC(=O)N2[C@@H]3C[C@@H]3C[C@H]2C(=O)Nc2cccc(OC(F)(F)F)c2F)c2ccc(-c3cncnc3)cc12 [Compound 8, 1-(2-((1R,3S,5R)-3-(2-fluoro-3-(trifluoromethoxy)phenylcarbamoyl)-2-azabicyclo[3.1.0]hexan-2-yl)-2-oxoethyl)-5-(pyrimidin-5-yl)-1H-indazole-3-carboxamide] | < 1000 nM | 
CC(=O)c1cn(CC(=O)N2C[C@H](F)C[C@H]2C(=O)Nc2cccc(Br)n2)c2ccc(-c3ccccc3Cl)cc12 [Compound 100, (2S,4R)-1-(2-(3-acetyl-5-(2-chlorophenyl)-1H-indol-1-yl)acetyl)-N-(6-bromopyridin-2-yl)-4-fluoropyrrolidine-2-carboxamide] | < 1000 nM | 
NC(=O)c1nn(CC(=O)N2[C@@H]3C[C@@H]3C[C@H]2C(=O)Nc2cccc(-c3ccccc3Cl)c2F)c2ccc(-c3ncccn3)cc12 [Compound 7, 1-(2-((1R,3S,5R)-3-(2′-chloro-2-fluorobiphenyl-3-ylcarbamoyl)-2-azabicyclo[3.1.0]hexan-2-yl)-2-oxoethyl)-5-(pyrimidin-2-yl)-1H-indazole-3-carboxamide] | < 1000 nM | 
CNc1ncc(-c2ccc3c(c2)c(C(C)=O)cn3CC(=O)N2C[C@H](F)C[C@H]2C(=O)Nc2cccc(-c3ccccc3Cl)c2F)cn1 [Compound 188, (2S,4R)-1-(2-(3-acetyl-5-(2-(methylamino)pyrimidin-5-yl)-1H-indol-1-yl)acetyl)-N-(2′-chloro-2-fluorobiphenyl-3-yl)-4-fluoropyrrolidine-2-carboxamide] | < 1000 nM | 
NC(=O)c1nn(CC(=O)N2C[C@H](F)C[C@H]2C(=O)Nc2nnc(-c3ccccc3Cl)s2)c2ccc(-c3ccnnc3)cc12 [Compound 115, 1-(2-((2S,4R)-2-(5-(2-chlorophenyl)-1,3,4-thiadiazol-2-ylcarbamoyl)-4-fluoropyrrolidin-1-yl)-2-oxoethyl)-5-(pyridazin-4-yl)-1H-indazole-3-carboxamide] | > 10000 nM | 
Cc1cc(NC(=O)[C@@H]2C[C@@H](F)CN2C(=O)Cn2nc(C(N)=O)c3cc(-c4ccnnc4)ccc32)n(-c2ccccc2F)n1 [Compound 158, 1-(2-((2S,4R)-4-fluoro-2-(1-(2-fluorophenyl)-3-methyl-1H-pyrazol-5-ylcarbamoyl)pyrrolidin-1-yl)-2-oxoethyl)-5-(pyridazin-4-yl)-1H-indazole-3-carboxamide] | > 10000 nM | 
NC(=O)c1nn(CC(=O)N2C[C@H](F)C[C@H]2C(=O)Nc2c[nH]nc2-c2ccc(Cl)cc2Cl)c2ccc(-c3ccnnc3)cc12 [Compound 94, 1-(2-((2S,4R)-2-(3-(2,4-dichlorophenyl)-1H-pyrazol-4-ylcarbamoyl)-4-fluoropyrrolidin-1-yl)-2-oxoethyl)-5-(pyridazin-4-yl)-1H-indazole-3-carboxamide] | > 10000 nM | 
CC(=O)c1cn(CC(=O)N2C[C@H](F)C[C@H]2C(=O)Nc2cccc(Br)n2)c2ccc(-c3cnc(C)nc3)cc12 [Compound 84, (2S,4R)-1-(2-(3-acetyl-5-(2-methylpyrimidin-5-yl)-1H-indol-1-yl)acetyl)-N-(6-bromopyridin-2-yl)-4-fluoropyrrolidine-2-carboxamide] | < 1000 nM | 
NC(=O)c1nn(CC(=O)N2C[C@H](F)C[C@H]2C(=O)Nc2ccc3cn[nH]c3c2)c2ccc(-c3ccnnc3)cc12 [Compound 86, 1-(2-((2S,4R)-2-(1H-indazol-6-ylcarbamoyl)-4-fluoropyrrolidin-1-yl)-2-oxoethyl)-5-(pyridazin-4-yl)-1H-indazole-3-carboxamide] | > 10000 nM | 
NC(=O)c1nn(CC(=O)N2C[C@H](F)C[C@H]2C(=O)Nc2cccc(Br)n2)c2ccc(-c3ccc(N4CCOCC4)cc3)cc12 [Compound 3, 1-(2-((2S,4R)-2-((6-Bromopyridin-2-yl)carbamoyl)-4-fluoropyrrolidin-1-yl)-2-oxoethyl)-5-(4-morphlinophenyl)-1H-indazole-3-carboxamide] | < 1000 nM | 
COCCNc1ncc(-c2ccc3c(c2)c(C(C)=O)cn3CC(=O)N2C[C@H](F)C[C@H]2C(=O)Nc2cccc(-c3ccccc3Cl)c2F)cn1 [Compound 187, (2S,4R)-1-(2-(3-acetyl-5-(2-(2-methoxyethylamino)pyrimidin-5-yl)-1H-indol-1-yl)acetyl)-N-(2′-chloro-2-fluorobiphenyl-3-yl)-4-fluoropyrrolidine-2-carboxamide] | < 1000 nM | 
NC(=O)c1nn(CC(=O)N2C[C@H](F)C[C@H]2C(=O)Nc2cncc(Br)n2)c2ccc(-c3ccnnc3)cc12 [Compound 128, 1-(2-((2S,4R)-2-(6-bromopyrazin-2-ylcarbamoyl)-4-fluoropyrrolidin-1-yl)-2-oxoethyl)-5-(pyridazin-4-yl)-1H-indazole-3-carboxamide] | < 1000 nM | 
CNC(=O)[C@@H]1C[C@@H](F)CN1C(=O)Cn1nc(C(N)=O)c2cc(-c3ccnnc3)ccc21 [Compound 79, 1-(2-((2S,4R)-4-fluoro-2-(methylcarbamoyl)pyrrolidin-1-yl)-2-oxoethyl)-5-(pyridazin-4-yl)-1H-indazole-3-carboxamide] | > 10000 nM | 
Cn1cc(N2CCCC(NC(=O)[C@@H]3C[C@@H](F)CN3C(=O)Cn3nc(C(N)=O)c4cc(-c5ccnnc5)ccc43)C2)cn1 (stereo partly drawn) [Compound 141, 1-(2-((2S,4R)-4-fluoro-2-(1-(1-methyl-1H-pyrazol-4-yl)piperidin-3-ylcarbamoyl)pyrrolidin-1-yl)-2-oxoethyl)-5-(pyridazin-4-yl)-1H-indazole-3-carboxamide] | > 10000 nM | 
NC(=O)c1nn(CC(=O)N2C[C@H](F)C[C@H]2C(=O)Nc2cccc(-c3ccccc3Cl)c2F)c2ccc(-c3cn[nH]c3)cc12 [Compound 1] | < 1000 nM | 
NC(=O)c1nn(CC(=O)N2C[C@H](F)C[C@H]2C(=O)Nc2cccc(-c3ccccc3Cl)c2F)c2ccc(-c3ccc(F)nc3)cc12 [Compound 12, 1-(2-((2S,4R)-2-((2′-Chloro-2-fluoro-[1,1′-biphenyl]-3-yl)carbamoyl)-4-fluoropyrrolidin-1-yl)-2-oxoethyl)-5-(6-fluoropyridin-3-yl)-1H-indazole-3-carboxamide] | < 1000 nM | 
NC(=O)c1nn(CC(=O)N2C[C@H](F)C[C@H]2C(=O)Nc2ncc(Br)cn2)c2ccc(-c3ccnnc3)cc12 [Compound 109, 1-(2-((2S,4R)-2-(5-bromopyrimidin-2-ylcarbamoyl)-4-fluoropyrrolidin-1-yl)-2-oxoethyl)-5-(pyridazin-4-yl)-1H-indazole-3-carboxamide] |  | 1000 to 10000 nM
CC(=O)c1cn(CC(=O)N2C[C@H](F)C[C@H]2C(=O)Nc2cccc(-c3ccccc3Cl)c2F)c2ccc(-c3cnc(O)nc3)cc12 [Compound 186, (2S,4R)-1-(2-(3-acetyl-5-(2-hydroxypyrimidin-5-yl)-1H-indol-1-yl)acetyl)-N-(2′-chloro-2-fluorobiphenyl-3-yl)-4-fluoropyrrolidine-2-carboxamide] | < 1000 nM | 
CC(=O)c1cn(CC(=O)N2C[C@H](F)C[C@H]2C(=O)N[C@@H]2CCC[C@H]2O)c2ccc(-c3ccnnc3)cc12 [Compound 143, (2S,4R)-1-(2-(3-acetyl-5-(pyridazin-4-yl)-1H-indol-1-yl)acetyl)-4-fluoro-N-((1R,2R)-2-hydroxycyclopentyl) pyrrolidine-2-carboxamide] | > 10000 nM | 
CC(=O)c1cn(CC(=O)N2C[C@H](F)C[C@H]2C(=O)Nc2cccc(-c3ccccc3Cl)c2F)c2ccc(-c3cnnc(C)c3)cc12 [Compound 121, (2S,4R)-1-(2-(3-acetyl-5-(6-methylpyridazin-4-yl)-1H-indol-1-yl)acetyl)-N-(2′-chloro-2-fluorobiphenyl-3-yl)-4-fluoropyrrolidine-2-carboxamide] | < 1000 nM | 
CC(=O)c1cn(CC(=O)N2C[C@H](F)C[C@H]2C(=O)Nc2cccc(-c3ncccc3Cl)c2F)c2ccc(-c3cnc(C)nc3)cc12 [Compound 164, (2S,4R)-1-(2-(3-acetyl-5-(2-methylpyrimidin-5-yl)-1H-indol-1-yl)acetyl)-N-(3-(3-chloropyridin-2-yl)-2-fluorophenyl)-4-fluoropyrrolidine-2-carboxamide] | < 1000 nM | 
COc1ncc(-c2ccc3c(c2)c(C(C)=O)cn3CC(=O)N2C[C@H](F)C[C@H]2C(=O)NCc2cccc(Cl)c2F)cn1 [Compound 136, (2S,4R)-1-(2-(3-acetyl-5-(2-methoxypyrimidin-5-yl)-1H-indol-1-yl)acetyl)-N-(3-chloro-2-fluorobenzyl)-4-fluoropyrrolidine-2-carboxamide] | < 1000 nM | 
CC(=O)c1cn(CC(=O)N2C[C@H](F)C[C@H]2C(=O)NCc2cccnc2)c2ccc(-c3ccnnc3)cc12 [Compound 59, (2S,4R)-1-(2-(3-acetyl-5-(pyridazin-4-yl)-1H-indol-1-yl)acetyl)-4-fluoro-N-(pyridin-3-ylmethyl)pyrrolidine-2-carboxamide] |  | 1000 to 10000 nM
